According to US20060286167A1, “Compositions and methods for the treatment of neurodegenerative diseases” (priority 2005, published 2006):
Where a name gives a salt, the structure may show the parent alone.

The compounds below were run on SMN protein in SMA patient fibroblasts (GM03813) (assay: SMN cytoblot assay (SMN protein levels in SMA patient fibroblasts)). Conditions: not given.
Format: cell-based, human
Excerpt: One method for monitoring SMN protein levels in cells is through use of a cytoblot assay, in which cells are fixed and probed with an antibody against a target protein of interest. We have used a cytoblot assay to determine the concentration of SMN protein in SMA patient fibroblasts, and have identified small molecules that increase SMN protein concentration.
Using the cytoblot assay, we can clearly distinguish SMN protein levels in patient (GM03813) versus carrier fibroblast cells (GM03814), as shown in the FIGS. 1A and 1B.
• 1. Plate 50 μl per well of 300,000 cells/ml (15,000 cells per well) into Nunc white 384-well opaque-bottomed plates. • 2. Incubate plates at 37° C., 5% CO2 overnight. Day 2 • 1. Aspirate media from wells using Tecan plate washer. • 2. Fix cells by adding 20 μl/well of cold methanol (kept in −20° C. freezer). • 3. Incubate plates in 4° C. refrigerator for 10 minutes. • 4. Aspirate methanol using Tecan plate washer. • 5. Add 50 μl/well of primary Ab solution, (BD anti-SMN Ab diluted to 125 ng/ml in 10% fetal goat serum PBST), using multi-drop. • 6. Seal plates and incubate overnight at room temperature. Day 3 • 1. After 16-20 hrs incubation, wash plates with PBST 2× using Tecan plate washer. • 2. Add 50 μl of secondary Ab solution, (Santa Cruz goat anti-Mouse-HRP diluted to 67 ng/ml in 10% fetal goat serum PBST). • 3. Seal plates and incubate 2 hrs at room temperature. • 4. Wash plates with PBST 2× using Tecan plate washer. • 5. Add 50 μl/well 10% fetal goat serum PBST. • 6. Incubate in 4° C. refrigerator for 10 minutes. • 7. Aspirate plates using plate washer and add ECL luminescence solution, 20 μl/well. • 8. Measure luminescence on plate reader. Automated Scoring
We scored each compound based on the maximum signal-to-noise ratio (SNR) found among its dose curves. These scores are based on edge-corrected SMN data, using only plates that passed quality control. The untreated level on each plate was found by taking the median of the untreated wells, and for each treated well we calculated a log(T/U) ratio. Each curve was generated in triplicate on each plate, so each point on a compound's dose curve was obtained by determining the median for the replicate points. Each ratio thus has an error estimate from the scatter between the triplicate data points (1.5 times the median absolute deviation from the median). For each dose curve, we calculated the SNR for each data point log(T/U)/error, and chose the maximum point as our indicator of SMN induction activity. Since this is a signal-to-noise score, scores much greater than one indicate significant activity, assuming normal statistics. We decided to use a cutoff signal-to-noise ratio of 6. This selection represents a considerable enrichment towards visually-selected compounds. We identified 100 out of 2000 compounds producing scores >6. This included 13 of the 28 visual selections.

| SMILES | SNR |
| --- | --- |
| [Ca+2].[Cl-].[Cl-] [Calcium Chloride] | 7.63 |
| CS(=N)(=O)CC[C@H](N)C(=O)O (stereo partly drawn) [L-Methionine Sulfoximine] | 7.29 |
| O=S(=O)([O-])[O-].[Mn+2] [Manganese Sulfate] | 10.3 |

Same assay, conditions: maximum signal-to-noise ratio log(T/U)/error among a compound's dose curves, SMN cytoblot; cutoff 6; column Scoring says Automated or Visual selection

| SMILES | SNR |
| --- | --- |
| CC(C)(S)C(N)C(=O)O (racemic) [dl-Penicillamine] | 9.63 |
| CC(C)(C)OC(=O)N1CCCNCC1 [1-Boc-homopiperazine] | 6.66 |
| CC1CCC(=CC(=O)O)CC1 (stereo not drawn) [2-(4-methyl010cyclohexylidene) acetic acid] | 6.16 |
| CCCCc1cccs1 [2-n-Butylthiophene] | 8.96 |
| COc1ccc(CC(C)=O)cc1OC [3,4-Dimethoxyphenylacetone] | 7.25 |
| C=CCCC(=O)O [4-Pentenoic acid] | 10.8 |
| CC(=O)Nc1c(I)cc(I)c(C(=O)O)c1I [Acetrizoate Sodium] | 12.8 |
| C=CCSSCC=C [Allyl Disulfide] | 9.08 |
| CN(C)c1nc(N(C)C)nc(N(C)C)n1 [Altretamine] | 10.2 |
| NCC[C@H](O)C(=O)N[C@@H]1C[C@H](N)[C@@H](O[C@H]2O[C@H](CN)[C@@H](O)[C@H](O)[C@H]2O)[C@H](O)[C@H]1O[C@H]1O[C@H](CO)[C@@H](O)[C@H](N)[C@H]1O.O=S(=O)(O)O.O=S(=O)(O)O [Amikacin Sulfate] | 7.7 |
| CCCC(CCC)C(=O)O[C@H]1C[C@H]2CC[C@@H](C1)[N+]2(C)C [Anisotropine Methylbromide] | 6.43 |
| O=C1O[C@H]([C@@H](O)CO)C(O)=C1O [Ascorbic Acid] | 6.29 |
| CC1(C)S[C@@H]2[C@H](NC(=O)[C@H](NC(=O)N3CCNC3=O)c3ccccc3)C(=O)N2[C@H]1C(=O)O [Azlocillin Sodium] | 6.7 |
| CCC(=O)OCC(=O)[C@@]1(OC(=O)CC)[C@@H](C)C[C@H]2[C@@H]3CCC4=CC(=O)C=C[C@]4(C)[C@@]3(Cl)[C@@H](O)C[C@@]21C [Beclomethasone Dipropionate] | 6.27 |
| CC(Cc1cccc(C(F)(F)F)c1)NCCOC(=O)c1ccccc1 (stereo not drawn) [Benfluorex Hydrochloride] | 7.11 |
| O=C(OCc1ccccc1)c1ccccc1 [Benzyl Benzoate] | 9.42 |
| CC1=C(/C=C/C(C)O)C(C)(C)CCC1 (stereo not drawn) [Beta-Ionol] | 10.3 |
| CC(C)NCC(O)COc1ccc(CCOCC2CC2)cc1 (stereo not drawn) [Betaxolol Hydrochloride] | 7.21 |
| CC(C[N+](C)(C)C)OC(N)=O (stereo not drawn) [Bethanechol Chloride] | 9.26 |
| CC(C)(Oc1ccc(CCNC(=O)c2ccc(Cl)cc2)cc1)C(=O)O [Bezafibrate] | 7.38 |
| CCCCC(CC)COC(=O)/C=C/C(=O)OCC(CC)CCCC (stereo not drawn) [Bis(2-Ethlyhexyl) Fumarate] | 7.33 |
| CS(=O)(=O)OCCCCOS(C)(=O)=O [Busulfan] | 17.4 |

| SMILES | SNR |
| --- | --- |
| CC1(C)S[C@@H]2[C@H](NC(=O)C(C(=O)O)c3ccccc3)C(=O)N2[C@H]1C(=O)O (stereo partly drawn) [Carbenicillin Disodium] | 7.99 |
| CN(C)CCC(O)(c1ccccc1)c1ccccc1Cl (stereo not drawn) [Chlophedianol Hydrochloride] | 7.44 |
| CN(C)[C@@H]1C(O)=C(C(N)=O)C(=O)[C@@]2(O)C(O)=C3C(=O)c4c(O)ccc(Cl)c4[C@@](C)(O)[C@H]3C[C@@H]12 [Chlortetracycline Hydrochloride] | 10.4 |
| CCn1nc(C(=O)O)c(=O)c2cc3c(cc21)OCO3 [Cinoxacin] | 6 |
| CC(C)=CCCC(C)CC=O (stereo not drawn) [Citronellal] | 8.6 |
| CN(CC(=O)O)C(=N)N [Creatine] | 8.34 |
| [Cl][Cu][Cl] [Cupric Chloride] | 12.1 |
| CC(=O)OCC(=O)[C@H]1CC[C@H]2[C@@H]3CCC4=CC(=O)CC[C@]4(C)[C@H]3CC[C@]12C [Desoxycorticosterone Acetate] | 7.41 |
| CCCC(CCC)C(=O)O [Divalproex Sodium] | 6.59 |
| CC(CCc1ccc(O)cc1)NCCc1ccc(O)c(O)c1 (stereo not drawn) [Dobutamine Hydrochloride] | 6.47 |
| O=C1Nc2ccc(Cl)cc2[C@@](C#CC2CC2)(C(F)(F)F)O1 [Efavirenz] | 13.1 |
| CCOC(=O)[C@H](CCc1ccccc1)N[C@@H](C)C(=O)N1CCC[C@H]1C(=O)O [Enalapril] | 6.77 |
| CNC[C@H](O)c1ccc(O)c(O)c1 [Epinephrine Bitartrate] | 8.26 |
| CCc1cc(C(N)=S)ccn1 [Ethionamide] | 14 |
| CCN(CC)C(C)CN1c2ccccc2Sc2ccccc21 (stereo not drawn) [Ethopropazine Hydrochloride] | 9.61 |
| C[N+]1(CCC(C(N)=O)(c2ccccc2)c2ccccc2)CCCCC1 [Fenpiverinium Bromide] | 7.49 |
| CC(=O)OCC(=O)[C@@]12OC(C)(C)O[C@@H]1C[C@H]1[C@@H]3C[C@H](F)C4=CC(=O)C=C[C@]4(C)[C@@]3(F)[C@@H](O)C[C@@]12C [Fluocinonide] | 7.01 |
| O=C(O)c1ccccc1OP(=O)(O)O [Fosfosal] | 6.77 |
| NC[C@@H]1O[C@H](O[C@H]2[C@@H](O)[C@H](O[C@@H]3[C@@H](O)[C@H](N)C[C@H](N)[C@H]3O[C@H]3O[C@H](CN)[C@@H](O)[C@H](O)[C@H]3N)O[C@@H]2CO)[C@H](N)[C@@H](O)[C@@H]1O [Framycetin] | 13.3 |
| NCC1(CC(=O)O)CCCCC1 [Gabapentin] | 6.84 |
| CC(O)CN1CCN(CC(=O)[O-])CCN(CC(=O)[O-])CCN(CC(=O)[O-])CC1.[Gd+3] (stereo not drawn) [Gadoteridol] | 6.54 |
| CC[N+](CC)(CC)CCOc1cccc(OCC[N+](CC)(CC)CC)c1OCC[N+](CC)(CC)CC [Gallamine Triethiodide] | 15.4 |

| SMILES | SNR |
| --- | --- |
| CC(=O)OC/C=C(\C)CCC=C(C)C [Geranyl Acetate] | 6.71 |
| N=C(N)NC(=O)Cc1c(Cl)cccc1Cl [Guanfacine Hydrochloride, (N-aminoiminomethyl)-2,6-dichlorobenzeneacetamide] | 7.24 |
| CNCCNS(=O)(=O)c1cccc2cnccc12 [H-8] | 9.52 |
| CC(C)CCCC(C)CCCC(C)CCCCC(C)CCCC(C)CCCC(C)C (stereo not drawn) [Hexamethyltetracosane] | 6.64 |
| C=C(C)C1CCC(C)CC1OC(C)=O (stereo not drawn) [Isopulegol acetate] | 11.4 |
| COc1c2occc2c(OC)c2c(=O)cc(C)oc12 [Khellin] | 6.73 |
| O=C(O)[C@H](O)[C@@H](O)C(=O)O [L-Tartaric acid] | 6.92 |
| OC[C@@H](O)[C@@H](O[C@@H]1O[C@H](CO)[C@H](O)[C@H](O)[C@H]1O)[C@H](O)[C@@H](O)CO [Lactitol] | 15.8 |
| CC[C@@H](C(N)=O)N1CCCC1=O [Levetiracetam] | 7.74 |
| CN1CCN(C2=Nc3ccccc3Oc3ccc(Cl)cc32)CC1 [Loxapine Hydrochloride] | 10.1 |
| CC1CCC(C(C)C)C(O)C1 (stereo not drawn) [Menthol] | 7.87 |
| C=N[C@@H](C(=O)N[C@@H]1C(=O)N2[C@@H]1SC(C)(C)[C@@H]2C(=O)O)c1ccccc1 [Metampicillin] | 9.95 |
| CCCCC/C=C\C/C=C\CCCCCCCC(=O)OC [Methyl Linoleate] | 10.1 |
| CCCCCCCC/C=C\CCCCCCCC(=O)OC [Methyl Oleate] | 7.89 |
| CCCCCC/C=C\CCCCCCCC(=O)OC [Methyl Palmitoleate] | 9.63 |
| CC(=O)Oc1cc(C(C)C)c(OCCN(C)C)cc1C [Moxisylyte Hydrochloride] | 14.3 |
| O=C(N/N=C/c1ccc([N+](=O)[O-])o1)c1ccc(O)cc1 [Nifuroxazide] | 6.96 |
| CC(=O)N1C[C@H](O)C[C@H]1C(=O)O [Oxaceprol] | 10.6 |
| C=CCOc1ccccc1OCC(O)CNC(C)C (stereo not drawn) [Oxprenolol Hydrochloride] | 6.52 |
| C#CCN(C)Cc1ccccc1 [Pargyline] | 6.52 |
| NC[C@@H]1O[C@H](O[C@H]2[C@@H](O)[C@H](O[C@@H]3[C@@H](O)[C@H](N)C[C@H](N)[C@H]3O[C@H]3O[C@H](CO)[C@@H](O)[C@H](O)[C@H]3N)O[C@@H]2CO)[C@H](N)[C@@H](O)[C@@H]1O [Paromomycin Sulfate] | 11 |
| C[C@H]1COc2c(C3(N)CC3)c(F)cc3c(=O)c(C(=O)O)cn1c23 [Pazufloxacin] | 7.83 |
